Legend:
PxOctβ3 [1] = molecular target: T1, PxOctβ3 (Plutella xylostella, UniProt Z9TZ33AL48); experiment: intracellular cAMP assay, HEK-293 cells stably expressing the receptor; type: cell-based
T1 construct: pcDNA3.1-PxOctβ3 stably expressed in HEK-293 cells; ORF also cloned in pEGFP-N1

PxOctβ3 [2] = molecular target: T1, PxOctβ3; experiment: as above; type: cell-based; settings: agonist; 1 nM-100 μM; b43 prints approximately 65 nM

NCCc1ccccc1 [2-phenylethylamine]
fold cAMP at 10 μM (PxOctβ3 [1]; weak agonist): clonidine, amitraz, and 2-phenylethylamine were barely effective agonists

Cc1ccc(/N=C/N(C)/C=N/c2ccc(C)cc2C)c(C)c1 [amitraz]
fold cAMP at 10 μM (PxOctβ3 [1]; weak agonist): clonidine, amitraz, and 2-phenylethylamine were barely effective agonists

Clc1cccc(Cl)c1NC1=NCCN1 [clonidine]
fold cAMP at 10 μM (PxOctβ3 [1]; weak agonist): clonidine, amitraz, and 2-phenylethylamine were barely effective agonists

NCCc1ccc(O)c(O)c1 [dopamine]
fold cAMP at 10 μM (PxOctβ3 [1]; agonist): 2.3 fold

NC[C@H](O)c1ccc(O)cc1 [octopamine]
EC50 (PxOctβ3 [2]): 65 nM

NCCc1ccc(O)cc1 [tyramine]
fold cAMP at 10 μM (PxOctβ3 [1]; agonist): 9.6 fold
